Test results from the RepoRT retention time repository (doi:10.1021/acs.analchem.2c02893).

Experiment: RP, Thermo Scientific Acclaim RSLC 120 C18, 100 × 2.1 mm, 2.2 µm, 30 °C, 0.2 mL/min, estimated dead time 1.1 min; A: 90% water + 10% methanol + 0.01% formic acid + 5 mM ammonium formate, pH 3.61; B: methanol + 0.01% formic acid + 5 mM ammonium formate, pH 3.61; gradient (min/%B) 0/1 1/1 2/39 13/99.9 15/99.9 15.1/1 20.1/1
Conditions: stereoisomer not certain

Structure (SMILES)	LC retention time
CCCCCCCCSC(=O)Oc1cc(Cl)nnc1-c1ccccc1 [Pyridate]	13.8 min
O=C(O)c1cc(N=Nc2ccc(S(=O)(=O)Nc3ccccn3)cc2)ccc1O [Sulfasalazine]	6.61 min
Cc1oc(C)c(C(=O)Nc2ccccc2)c1C [Methfuroxam]	8.79 min
Cc1cc(C)nc(NC(=O)NS(=O)(=O)c2ccccc2C(=O)OC2COC2)n1 [Oxasulfuron]	6.52 min
NC1CCc2cc3c(cc2C1)OCO3 (stereo unspecified) [MDAT]	4.32 min
CCC(C(=O)c1ccc2c(c1)OCO2)N1CCCC1 (stereo unspecified) [MDPBP]	4.49 min
Cc1ccccc1C(OCCN(C)C)c1ccccc1 (stereo unspecified) [Orphenadrine]	7.44 min
CC1COc2ccccc2N1C(=O)C(Cl)Cl (stereo unspecified) [Benoxacor]	8.87 min
CCCCCn1cc(C(=O)c2cccc3ccccc23)cc1-c1cccc(F)c1 [JWH-368]	13 min
CC12CCC(=O)C=C1CCC1C2C(O)CC2(C)C(C(=O)CO)CCC12 (stereo unspecified) [Corticosterone]	8.74 min
COP(=S)(OC)Oc1ccc(Sc2ccc(OP(=S)(OC)OC)cc2)cc1 [Temephos]	12.4 min
COCCCNc1nc(NC(C)C)nc(SC)n1 [Methoprotryne]	9.14 min
COC=C(C(=O)OC)c1ccccc1Oc1cc(Oc2ccccc2C#N)ncn1 [Azoxystrobin]	9.02 min
CC(C)CCOc1ccc(NC(=S)Nc2ccc(OCCC(C)C)cc2)cc1 [Tiocarlide]	13 min
CN(C)CCC=C1c2ccccc2C=Cc2ccccc21 [Cyclobenzaprine]	7.95 min
CC[N+]1(C)C2CC(OC(=O)C(CO)c3ccccc3)CC1C1OC12 (stereo unspecified) [Oxitropium]	3.87 min
CCN(CC)CCNC(=O)c1cc(S(C)(=O)=O)ccc1OC [Tiapride]	3.41 min
Cc1c(COC(=O)C2C(C=C(Cl)C(F)(F)F)C2(C)C)cccc1-c1ccccc1 (stereo unspecified) [Bifenthrin]	14.1 min
CC(=NNC(=O)Nc1cc(F)cc(F)c1)c1ncccc1C(=O)O [Diflufenzopyr]	6.22 min
CCOC(=O)C1=NN(c2ccc(Cl)cc2Cl)C(C)(C(=O)OCC)C1 (stereo unspecified) [Mefenpyr-diethyl]	11.1 min
CCCOc1nn(C(=O)NS(=O)(=O)c2ccccc2C(=O)OC)c(=O)n1C [Propoxycarbazone]	5.73 min
CC(C)(C)NCC(O)c1ccc(O)c(CO)c1 (stereo unspecified) [Albuterol / Salbutamol]	3.23 min

Structure (SMILES)	LC retention time
NC(=O)N1c2ccccc2C(O)C(O)c2ccccc21 (stereo unspecified) [Carbamazepine-10.11-dihydro-10.11 dihydroxy]	5.79 min
CC(CCc1ccccc1)NCC(O)c1ccc(O)c(C(N)=O)c1 (stereo unspecified) [Labetalol]	5.74 min
COCC(=O)Nc1c(I)c(C(=O)NCC(O)CO)c(I)c(C(=O)N(C)CC(O)CO)c1I (stereo unspecified) [Iopromid]	3.38 min
CC(C)(C)c1ccc(CCOc2ncnc3ccccc23)cc1 [Fenazaquin]	13.7 min
NC(=O)N1c2ccccc2CC(=O)c2ccccc21 [Oxcarbazepine]	6.46 min
O=C1CCc2ccc(OCCCCN3CCN(c4cccc(Cl)c4Cl)CC3)cc2N1 [Aripiprazole]	8.63 min
CC(C)N1C(=O)c2ccccc2NS1(=O)=O [Bentazone]	5.22 min
FC(F)C(F)(F)OCC(Cn1cncn1)c1ccc(Cl)cc1Cl (stereo unspecified) [Tetraconazole]	10.1 min
CCC(C)(C)C(=O)OC1CC(C)C=C2C=CC(C)C(CCC3CC(O)CC(=O)O3)C21 (stereo unspecified) [Simvastatin]	12.6 min
Cc1ncc(CSSCc2cnc(C)c(O)c2CO)c(CO)c1O [Pyritinol]	5.54 min
CC(C)N(C(=O)SCC(Cl)=CCl)C(C)C [Diallate]	11.8 min
COP(=S)(OC)Oc1ccc([N+](=O)[O-])c(C)c1 [Fenitrothion]	9.92 min
CC(C)N(CCc1c[nH]c2ccccc12)C(C)C [DiPT]	4.87 min
CCCCCCC(C)(C)c1ccc(C2CCCC(O)C2)c(O)c1 (stereo unspecified) [CP 47-497]	13.1 min
CCc1cc2cc(OC)c(OC)cc2c(Cc2ccccc2)n1 [Moxaverine]	8.29 min
O=C(O)COc1nc(Cl)c(Cl)cc1Cl [Triclopyr]	7.85 min
CCOP(=S)(OCC)Oc1cc(-c2ccccc2)on1 [Isoxathion]	11.3 min
CC(=O)CCCCn1c(=O)c2c(ncn2C)n(C)c1=O [Pentoxifylline]	5.23 min
COC(=O)Nc1ccc(Cl)c(Cl)c1 [SWEP.MCC]	9.68 min
CCN(CC)CCOC(=O)c1ccc(N)cc1 [Procaine]	3.21 min
COC1CC(CC2CCC(C)C(C(C)C(=O)O)O2)OC2(OC(C)(C3CCC(C)(C4OC(C5OC(O)(CO)C(C)CC5C)CC4C)O3)CC2C)C1C (stereo unspecified) [Nigericin]	13.9 min
CC1(C)C(C(=O)c2cn(CCN3CCOCC3)c3ccccc23)C1(C)C [A-796.260]	10.7 min

Structure (SMILES)	LC retention time
CC#Cc1cc(C)nc(Nc2ccccc2)n1 [Mepanipyrim]	10.2 min
CCCCCCCCCCCC(=O)NCC(C)O (stereo unspecified) [Lauric isopropanolamide]	12.1 min
CN(C)C(CSS(=O)(=O)c1ccccc1)CSS(=O)(=O)c1ccccc1 [Bensultap]	9.6 min
CNC(=O)Oc1cccc(C)c1 [Metolcarb]	6.59 min
CN(C(=O)CO)c1c(I)c(C(=O)NCC(O)CO)c(I)c(C(=O)NCC(O)CO)c1I (stereo unspecified) [Iomeprol]	2.91 min
CCSCCSP(=S)(OC)OC [Thiometon]	10.2 min
Cc1nnc2n1-c1ccc([N+](=O)[O-])cc1C(c1ccccc1Cl)=NC2 [Clonazolam]	7.24 min
CCOC(=O)C(SP(=S)(OC)OC)c1ccccc1 (stereo unspecified) [Phenthoate]	10.7 min
CCOC(=O)C(c1ccccc1)N1CCCCC1 (stereo unspecified) [Ethylphenidate]	5.08 min
CCOS(=O)(=O)O [Ethyl Sulphate (NH4)]	1.58 min
O=C(O)Cc1c[nH]c2ccccc12 [Indole-3-acetic acid]	5.78 min
COC(=O)Nc1nc2ccccc2[nH]1 [Carbendazim]	5.46 min
CCOC(=O)C(CCc1ccccc1)NC(C)C(=O)N1CCCC1C(=O)O (stereo unspecified) [Enalapril]	6.83 min
O=S(O)(O)=S [THJ]	13.7 min
O=c1ccc2cc(OC3OC(CO)C(O)C(O)C3O)c(O)cc2o1 (stereo unspecified) [Esculin]	3.69 min
CCCN(CCC)C(=O)SCC [EPTC]	10.7 min
Cc1onc(-c2c(Cl)cccc2Cl)c1C(=O)NC1C(=O)N2C1SC(C)(C)C2C(=O)O (stereo unspecified) [Dicloxacillin]	7.8 min
COC(=O)COc1cc(Cl)c(Cl)cc1Cl [2.4.5-T-methylester]	10.8 min
CN(C)S(=O)(=O)c1ccc2c(c1)N(CCCN1CCC(CCO)CC1)c1ccccc1S2 [Pipotiazine]	7.39 min
CNC(C)C(=O)c1cccc(F)c1 (stereo unspecified) [Methcathinone (3-F-)]	3.94 min
NC(N)=NC(N)=NCCc1ccccc1 [Phenformin]	4.38 min
O=C1c2ccccc2C(=O)C1C(=O)C(c1ccccc1)c1ccccc1 [Diphacinone]	8.6 min

Structure (SMILES)	LC retention time
CCCCCn1cc(C(=O)C23CC4CC(CC(C4)C2)C3)c2ccccc21 [JWH-018-Adamantoyl. AB-001]	13.7 min
O=C(O)c1cn(-c2ccc(F)cc2)c2cc(N3CCNCC3)c(F)cc2c1=O [Sarafloxacin]	4.83 min
CNC(C)CC1CCCCC1 (stereo unspecified) [Levopropylhexedrine]	5.74 min
Clc1ccc2c(c1)N=C(N1CCNCC1)c1ccccc1N2 [Clozapine-Nor]	7.29 min
c1ccc2sc(N3CCOCC3)nc2c1 [2-(4-Morpholinyl)benzothiazole]	8.5 min
c1ccc2scnc2c1 [Benzothiazole (BTH)]	6.88 min
CC12CCC(=O)C=C1CCC1C2CCC2(C)C(OC(=O)c3ccccc3)CCC12 (stereo unspecified) [Testosterone benzoate]	13.8 min
NC(=O)N1c2ccccc2C2OC2c2ccccc21 (stereo unspecified) [Carbamazepine-10.11-epoxide]	6.04 min
COc1cc(OC)nc(NC(=O)NS(=O)(=O)c2cc(NC=O)ccc2C(=O)N(C)C)n1 [Foramsulfuron]	7.54 min
CCc1cc2c(s1)-n1c(C)nnc1CN=C2c1ccccc1 [Deschloroetizolam]	8.43 min
CCOP(=O)(OCC)Oc1ccc([N+](=O)[O-])cc1 [Paraoxon]	8.01 min
CC=CCC1=C(C)C(OC(=O)C2C(C=C(C)C(=O)OC)C2(C)C)CC1=O (stereo unspecified) [Pyrethrins: Cinerin II]	11.6 min
O=C1NCC(=O)N2C1Cc1c([nH]c3ccccc13)C2c1ccc2c(c1)OCO2 (stereo unspecified) [Tadalafil-Nor]	7.99 min
COc1cc(OC)nc(NC(=O)NS(=O)(=O)c2c(Cl)nc3ccccn23)n1 [Imazosulfuron]	8.78 min
CCC(C)CC(C)N (stereo unspecified) [DMAA (Methylhexanamine)]	4.68 min
CCC(=O)OC(Cc1ccccc1)(c1ccccc1)C(C)CNC (stereo unspecified) [Nordextropropoxyphene]	7.84 min
Cc1ccc(N(SC(F)(Cl)Cl)S(=O)(=O)N(C)C)cc1 [Tolyfluanid]	10.8 min
CCC(CC)Nc1c([N+](=O)[O-])cc(C)c(C)c1[N+](=O)[O-] [Pendimethalin]	12.8 min
Cc1nn(C)c(Oc2ccccc2)c1C=NOCc1ccc(C(=O)OC(C)(C)C)cc1 [Fenpyroximate]	13.2 min
NC1Cc2ccc(I)cc2C1 (stereo unspecified) [5-Iodo-2-aminoindane (5-IAI)]	5.87 min
